Patent US6235493A, “Amino acid substituted-cresyl violet, synthetic fluorogenic substrates for the analysis of agents in individual in vivo cells or tissue” (priority 1998, dated 2001)

Key:
[1] = Water solubility (stated); type: physicochemical; settings: free cresyl violet; avoids accumulation around mitochondria
[2] = Fluorescence properties of cresyl violet (image analysis calibration); type: physicochemical
Experimental: Calibration was performed by measuring fluorescence of a series of solutions of 0-10 μM cresyl violet in Krebs-Henseleit medium. These solutions were also used to test the properties of cresyl violet for quantitative purposes. The depth of the incubation chamber was 24 μm and the size of the area measured 240×170 μm. The total volume that was measured was thus 0.001 μl. The amount of fluorescence captured by image analysis was linearly related with concentrations up to at least 10 μM when measured in a thin film of 24 μm which approximates the diameter of cells (FIG. 2A). Thus, cresyl violet has fluorescence properties that are necessary for quantitative fluorescence microscopy (36B). On the basis of FIG. 2A, it was calculated that 100 gray values corresponded with 6.7 fmoles cresyl violet. […] Flow cytometric analysis of production of cresyl violet in hepatorcytes was performed with a FAC-Star Plus (Becton and Dickinson, San Jose, Calif., USA) using the software program CellQuest (version 1.0; Becton and Dicksinson). Prior to analysis, cells were stained with the DNA dye Hoechst 3.3.3.4.2 (36 ,μg/ml; Hoechst Holland, Amsterdam, The Netherlands) for 30 min at 0° C. Analysis was started by established forward scatter and then substrate was added at t=0. Analysis was performed at a flow rate of 200 cells/sec. The parameters measured were time, forward scatter, fluorescence of Hoechst 3.3.3.4.2 dye (excitation at 350 nm, emission at 485 nm with a band width of 20 nm), and fluorescence of cresyl violet (excitation at 514 nm, emission at 630 nm with a band width of 22 nm). Filters were obtained from Becton and Dickenson. The power of the lasers was set at […]. Fluorometric analysis with time was carried out with a Perkin-Elmer LS 50 fluorescence spectrometer (Perkin-Elmer, Gouda, The Netherlands) under continuous magnetic stirring. Cuvettes with a light path of 1 cm were used. Excitation was performed at 591 nm with a slid width of 10 nm and emission was measured at 628 nm (slid width 10 nm). The first measurement was made at 5 sec after mixing cells and incubation medium.

[3] = system: dipeptidyl peptidase IV (DPPIV); experiment: DPPIV activity in membrane fractions of hepatocytes (fluorometry); type: biochemical, rat; settings: membrane fractions of the same hepatocyte suspensions
Experimental: Hepatocytes were isolated by collagenase perfusion of livers of male Wistar rats (200-250 g; HSD Animal Farm, Zeist, The Netherlands) after 24 h of starvation as described previously (30). The animals were exposed to a controlled dark-light cycle (light: 7:00 a.m.-7:00 p.m.) throughout the acclimatization period of at least 1 week. Before starvation, animals had free access to food (standard chow diet; Hope Farms, Woerden, The Netherlands) and water. The animals had always free access to water. During operation, the animals were under Nembutal anaesthesia. Animal care was performed according to the guidelines of the University of Amsterdam. […]
DPPIV activity was determined in hepatocytes using 6 approaches. Activity was determined in living hepatocytes with confocal scanning laser microscopy, image processing and analysis, flow cytometry, and fluorometry. […] Excitation was performed at 568 nm and fluorescence was captured at >595 nm. […] Images in the X-Y plane were recorded with intervals of 0.5 μm in the Z direction. […] Images were recorded din a 512×512 pixel format. […]
Calibration was performed by measuring fluorescence of a series of solutions of 0-10 μM cresyl violet in Krebs-Henseleit medium. These solutions were also used to test the properties of cresyl violet for quantitative purposes. The depth of the incubation chamber was 24 μm and the size of the area measured 240×170 μm. […]

[4] = target: T1, dipeptidyl peptidase IV (DPPIV) (CD26) (Rattus norvegicus, UniProt P14740); experiment: cell-based; type: cell-based; settings: for mode of inhibition of DPPIV: individual living rat hepatocytes, image analysis
T1 construct: individual freshly isolated living rat hepatocytes; endogenous in cells; host or cells: hepatocytes freshly isolated from livers of male Wistar rats
Experimental: Hepatocytes were isolated by collagenase perfusion of livers of male Wistar rats (200-250 g; HSD Animal Farm, Zeist, The Netherlands) after 24 h of starvation as described previously (30). The animals were exposed to a controlled dark-light cycle (light: 7:00 a.m.-7:00 p.m.) throughout the acclimatization period of at least 1 week. Before starvation, animals had free access to food (standard chow diet; Hope Farms, Woerden, The Netherlands) and water. The animals had always free access to water. During operation, the animals were under Nembutal anaesthesia. Animal care was performed according to the guidelines of the University of Amsterdam. Hepatocytes (5-10 mg dry mass/ml) were kept in Krebs-Henseleit bicarbonate medium containing 1.3 mM Ca^2+, 10 mM sodium Hepes (pH 7.4), 20 mM glucose and 1 mM octanoate on ice until enzyme assays. Homogenates were prepared by freezing cell suspensions in liquid nitrogen and subsequent thawing. One volume of homogenates and 10 volumes of 20 mM Tris-HCI buffer (pH 7.4) containing 1% (v/v) Triton X-100 were mixed and incubated at 4° C. under constant stirring for 60 min. One part of these homogenates was used for the determination of DPPIV activity. Another part was centrifuged (40,000 x g, 4° C., 20 min) and the supernatants were used as membrane fractions for the determination of DPPIV activity.
Analysis of DPPIV Activity
DPPIV activity was determined in hepatocytes using 6 approaches. Activity was determined in living hepatocytes with confocal scanning laser microscopy, image processing and analysis, flow cytometry, and fluorometry. Fluorometry was also used for the determination of activity in homogenates of hepatocytes and in membrane fractions of hepatocytes. Incubations were started at t=0 by adding an aliquot of 60 μl hepatocytes to 3 ml Krebs-Henseleit medium containing 0-50 μM (Ala-Pro)^2 -cresyl violet in the presence or absence of 0-50 μM Ala-Pip^p (OPh-4-Cl)2 (Enzyme Systems Products), which is a selective DPPIV inhibitor (31A,32A). Substrate and inhibitor were dissolved first in dimethylsulfoxide. The final concentration of dimethylsulfoxide in the incubation medium was 0.5% (v/v). Incubations were carried out at 20° C. Confocal scanning laser microscopy was performed after 100 μl of an assay medium containing hepatocytes was brought into a well formed by a stainless steel ring attached to a glass slide (33A). Images of cells were captured in time with a Leica confocal scanning laser microscope fitted to a Leica Fluovert inverted microscope equipped with a PL APO oil-immersion objective (63×, NA 1.40). Excitation was performed at 568 nm and fluorescence was captured at >595 nm. The pinhole aperture was set to provide an optimized image (34A). Cells were subjected to optical serial sectioning after each 60 sec of incubation up to 300 sec. Images in the X-Y plane were recorded with intervals of 0.5 μm in the Z direction. Each optical section was averaged 8 times. Images were recorded din a 512×512 pixel format. The size of each pixel represented 0.015 μm^2 in the object. Confocal data stacks of 20-30 optical sections were processed with standard Leica software package.
Image analysis was performed by transferring an aliquot of 100, μl of an incubation medium containing hepatocytes into an incubation chamber that consisted of an object glass and a cover glass separated by a spacer made of adhesion tape with a thickness of […]. The object glass was set on the stage of a fluorescencee microscope (Leitz Dialux 20, Wetzlar, Germany) with a ×25 objective (NA 0.75). A drop of medium was placed beside the cover glass and the chamber became filled by capillary forces in a few seconds. […]

T1 sequence (P14740 whole entry): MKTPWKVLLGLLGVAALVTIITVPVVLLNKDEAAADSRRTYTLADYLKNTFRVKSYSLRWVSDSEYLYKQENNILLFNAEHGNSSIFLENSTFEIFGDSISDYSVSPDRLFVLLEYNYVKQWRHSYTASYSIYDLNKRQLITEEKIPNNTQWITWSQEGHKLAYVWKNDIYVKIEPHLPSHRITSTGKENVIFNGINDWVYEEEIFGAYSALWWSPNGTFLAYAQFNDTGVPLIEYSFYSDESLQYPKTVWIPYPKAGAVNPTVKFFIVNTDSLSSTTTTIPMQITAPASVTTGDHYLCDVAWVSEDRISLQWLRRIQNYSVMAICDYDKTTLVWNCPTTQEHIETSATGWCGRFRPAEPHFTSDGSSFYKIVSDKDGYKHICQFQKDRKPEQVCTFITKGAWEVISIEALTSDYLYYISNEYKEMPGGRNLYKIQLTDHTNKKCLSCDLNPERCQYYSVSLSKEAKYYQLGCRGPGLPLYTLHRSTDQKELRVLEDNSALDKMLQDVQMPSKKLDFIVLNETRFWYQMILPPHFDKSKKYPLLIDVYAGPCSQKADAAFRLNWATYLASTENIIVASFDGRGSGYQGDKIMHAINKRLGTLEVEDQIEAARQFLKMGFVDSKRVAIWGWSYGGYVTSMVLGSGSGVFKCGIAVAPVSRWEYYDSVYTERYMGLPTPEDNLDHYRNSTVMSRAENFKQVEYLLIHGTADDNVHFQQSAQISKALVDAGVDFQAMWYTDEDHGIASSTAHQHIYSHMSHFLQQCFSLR

N=c1cc2oc3cc(N)ccc3nc-2c2ccccc12 [cresyl violet]
water solubility [1]: sufficiently water soluble
fading of fluorescence during measurements in time ([2]; FIG. 2B): Fading did not occur to any significant extent
amount corresponding with 100 gray values ([2]; image analysis calibration, FIG. 2A): 6.7 fmol
linearity of fluorescence with concentration (up to) ([2]; thin film of 24 μm, Krebs-Henseleit medium): at least 10 μM

C[C@H](N)C(=O)N1CCC[C@H]1C(=O)NC1=CC2Oc3cc(NC(=O)[C@@H]4CCCN4C(=O)[C@H](C)N)ccc3N=C2c2ccccc21 (stereo partly drawn) [Ala-Pro-cresyl violet, [Ala-Pro]^2-cresyl violet]
inverse relationship between Km and Vmax in membrane fractions [3]: lost
Vmax in individual hepatocytes [4]: 4-16 nU
Km ([4]; hepatocytes): 6 to 22 µM
conversion rate in the rat with the highest Vmax and lowest Km vs rat with the lowest Vmax and highest Km ([4]; physiological substrate concentrations): 10- to 20 fold

C[C@H](N)C(=O)N1CCCCC1P(=O)(Oc1ccc(Cl)cc1)Oc1ccc(Cl)cc1 (some centres unmarked) [Ala-Pip^p (OPh-4Cl)2, Ala-Pip^p (OPh-4-Cl)2]
Ki [4]: 7 µM
mode of inhibition of DPPIV [4]: selective competitive inhibitor
mode of inhibition of DPPIV ([4]; listed as dipeptide phosphonate inhibitor): competitively
